Assay results taken from PubChem BioAssay AID624258 (Broad Institute, 2012).
Where “and” joins values, the source holds several entries; their conditions need not be identical. Identical values can stand only once. Calls of active or inactive are those of the source. The rule behind the calls is not given here.

Experiment: Yeast SKN7 toxicity growth rescue counterscreen, Saccharomyces cerevisiae, plate reader, dose confirmatory (AID 624258);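 note: growth read after three days of incubation at 30 °C; 0% = median of neutral control wells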
Settings: S. cerevisiae SKN7-toxicity growth rescue, plate reader

Row | Structure (SMILES) | growth rescue activity (at 19.5 µM (top of the series)) | growth rescue activity (at 6.8 µM (top of the series))
1 | CC(=O)NC(=S)NNC(=O)C(c1ccccc1)c1ccccc1 | -30.2% (inactive) | –
2 | O=C1c2ccccc2-n2c1nc1ccccc1c2=O | -48.7% (inactive) | –
3 | COc1ccccc1N1CCN(C(=O)CCNS(=O)(=O)c2ccc(Br)s2)CC1 | 9.41% (inactive) | –
4 | Cc1ccc(C)c(/C=C/C(=O)c2ccccc(=O)c2O)c1 | -77% (inactive) | –
5 | CC1CN(C(=O)c2cc([N+](=O)[O-])cc([N+](=O)[O-])c2)CC(C)O1 (stereo not given) | -63% (inactive) | –
6 | COC(=O)c1cc(C#N)c(Oc2ccc(F)cc2)nc1C | -11.6% (inactive) | –
7 | O=C(NCCN1C(=O)S/C(=C\c2cccc(Cl)c2Cl)C1=O)C1=COCCO1 | 13.6% (inactive) | –
8 | O=C1c2cccc(Cl)c2C(=O)c2c1cccc2N1CCCC1 | 11.5% (inactive) | –
9 | c1ccc(-c2ccc(OCCCn3cncn3)cc2)cc1 | -51.8% (inactive) | –
10 | O/N=C(\c1ccc(Cl)cc1Cl)c1ncc(C(F)(F)F)cc1Cl | -32.2% (inactive) | –
11 | Cc1nc2ccc(NC(=O)Cc3ccc4c(c3)OCCO4)cc2s1 | 28.8% (inactive) | –
12 | N#Cc1c(-c2cccc([N+](=O)[O-])c2)nc2n(c1=O)CCS2 | 1.05% (inactive) | –
13 | Nc1nc2sc3c(c2c(=O)s1)CCCC3 | -93.9% (inactive) | –
14 | CCc1ccc(S(=O)(=O)N(C(=O)c2ccncc2)c2ccc(OC(=O)c3ccncc3)cc2)cc1 | -42.7% (inactive) | –
15 | CC1Oc2ccccc2C=C1/C=N/Nc1ccc(C(=O)O)cc1 (stereo not given) | -32.7% (inactive) | –
16 | Cc1ccccc1Oc1nc(-c2ccccn2)nc2ccccc12 | -58.6% (inactive) | –
17 | Oc1c(Br)cc(Br)cc1CNc1ccc(F)cc1 | -92% (inactive) | –
18 | CC/C(=N/NC(=O)c1ccccc1O)c1c(C)[nH]n(-c2ccccc2)c1=O | -59.4% (inactive) | –
19 | CCOc1ccc(-c2[nH]ncc2Oc2cccc(OC)c2)c(O)c1 | -63.7% (inactive) | –
20 | CC(=O)Nc1cccc(-c2cc(-c3c(Cl)cccc3Cl)no2)c1 | -92.6% (inactive) | –
21 | Cc1ccc(NC(=S)Nc2cccc3cnccc23)cc1C | – | -25.1% (inactive)
22 | CCCCCCCCCCSc1n[nH]c(N)n1 | -93.1% (inactive) | –
23 | COc1cccc(/C=N/Nc2ncnc3scc(-c4ccccc4)c23)c1O | -79.1% (inactive) | –
24 | COc1ccc(N(C)S(=O)(=O)c2ccc(Cl)c(C(=O)NNC(=O)c3ccccc3O)c2)cc1 | 4.7% (inactive) | –

Row | Structure (SMILES) | growth rescue activity (at 19.5 µM (top of the series)) | growth rescue activity (at 6.8 µM (top of the series))
25 | CCCC(C)Sc1nc2c([nH]1)c(=S)n(C)c(=O)n2C (stereo not given) | -31.9% (inactive) | –
26 | COc1ccc(S(=O)(=O)Nc2cc(SCC(=O)O)c(O)c3ccccc23)cc1 | 4.66% (inactive) | –
27 | CC(CNC(=O)COc1ccccc1)OC(=O)Nc1ccc(Cl)c(Cl)c1 (stereo not given) | -93.2% (inactive) | –
28 | COc1ccccc1-c1sc2cc3c(cc2c1C#Cc1cncn1C)OCO3 | -72% (inactive) | –
29 | Nc1cc([N+](=O)[O-])ccc1O | -8.46% (inactive) | –
30 | Nc1ccc(CC2=NCCN2)cc1 | 34.1% (inactive) | –
31 | Clc1ccc(COC(Cn2ccnc2)c2ccc(Cl)cc2Cl)c(Cl)c1 (stereo not given) | -74.2% (inactive) and -75.5% (inactive) | –
32 | CCCCNc1c(-c2ccc(-c3ccc(OC)cc3)c(OC)c2)nc2ccccn12 | -84.6% (inactive) | –
33 | CCc1cc(-c2[nH]ncc2-c2ccc([N+](=O)[O-])cc2)c(O)cc1OC | -43.8% (inactive) | –
34 | O=C(CSc1ccc(-c2ccccn2)nn1)NCc1ccc(Cl)cc1 | -56.5% (inactive) | –
35 | Oc1c(I)cc(Cl)c2cccnc12 | -81.1% (inactive) | –
36 | CCOc1ccc(S(=O)(=O)Nc2cc(SCC(=O)O)c(O)c3ccccc23)cc1 | 21.7% (inactive) | –
37 | O=c1cc(CSc2ccc(Cl)cc2)nc(-c2ccccn2)[nH]1 | -48.1% (inactive) | –
38 | CC1CC(C)(O)CC(C(O)CC2CC(=O)NC(=O)C2)C1=O (stereo not given) | 2.36% (inactive) | –
39 | CCCCCCCCCCCCCC(=O)NO | -69.6% (inactive) | –
40 | CCn1nc(/C=C/c2ccccc2)nc2c(=O)n(C)c(=O)nc1-2 | -44.4% (inactive) | –
41 | CC(C)(C)C(=O)N1CCN(c2ccc([N+](=O)[O-])cc2Cl)CC1 | – | -14.7% (inactive)
42 | O=C1C(Cl)=C(NCc2cccnc2)C(=O)c2ccccc21 | 26.7% (inactive) | –
43 | O/N=C(\c1ccc(Cl)cc1)c1cc2ccccc2o1 | 3.39% (inactive) | –
44 | CCCCC(CC)c1nnc(NC(=O)c2cccs2)s1 (stereo not given) | -59.6% (inactive) | –
45 | O=[N+]([O-])c1cc(Oc2cccnc2)cc([N+](=O)[O-])c1 | 5.86% (inactive) | –
46 | O=c1c(CO)cc(CO)cc(CO)c1O | -26.9% (inactive) | –
47 | Cc1ccc(S(=O)(=O)/N=C2/C=C(Sc3ncn[nH]3)C(=O)c3ccccc32)cc1 | 20.8% (inactive) | –
48 | O=C1N(c2ccc(Cl)cc2)C(c2cccnc2)N2CCCN12 (stereo not given) | -65.4% (inactive) | –

Row | Structure (SMILES) | growth rescue activity (at 19.5 µM (top of the series)) | growth rescue activity (at 6.8 µM (top of the series))
49 | O=C(Nc1cc(Oc2ccc(Cl)cc2)cc([N+](=O)[O-])c1)c1ccco1 | -42.9% (inactive) | –
50 | O=[N+]([O-])c1ccc(S(=O)Cc2ccccc2)c([N+](=O)[O-])c1 (stereo not given) | -45.8% (inactive) | –
51 | O=C(/C(=N/N=C/c1ccc(O)c(O)c1O)c1ccccc1)c1ccccc1 | -75.4% (inactive) | –
52 | CCC(C(=O)c1ccc2ncccc2c1)c1ccccc1 (stereo not given) | -32.2% (inactive) | –
53 | CCCCNc1c(-c2cccc(Sc3ccc(OC)cc3)c2)nc2ccccn12 | -86.4% (inactive) | –
54 | CC(=O)Nc1cccc(NC(=O)CSc2ccc(-c3ccccn3)nn2)c1 | -39.9% (inactive) | –
55 | Cc1cccc(Nc2nc(-c3ccccn3)cs2)n1 | -59.7% (inactive) | –
56 | Clc1ccc(-c2n[nH]c3c2CCC3)cc1Cl | -54.5% (inactive) | –
57 | O=C(CCNS(=O)(=O)c1ccc(Br)s1)N1CCN(c2ccccc2)CC1 | -25.4% (inactive) | –
58 | CC1CCc2c(C(=O)Nc3ccccn3)csc2C1 (stereo not given) | -95.2% (inactive) | –
59 | CN(C)c1ccc(C=c2c3cc(O)ccc3n3c2cc(-c2ccccc2)[n+]3C)cc1 | -34.8% (inactive) | –
60 | O=C(Sc1cccc2cccnc12)c1ccccc1Br | -59.6% (inactive) | –
61 | O=C(Oc1c(Cl)cc(Cl)c2cccnc12)c1cccs1 | -79.3% (inactive) | –
62 | COC(=O)C1=NN(C(=O)c2cccc(Br)c2)C(O)(c2ccc(Cl)cc2)C1 (stereo not given) | -17.5% (inactive) | –
63 | O=C(c1cc(COc2ccc(F)cc2Cl)on1)N1CCC(c2ccncc2)CC1 | -20.9% (inactive) | –
64 | O=C(N/N=C/c1ccc[nH]1)c1sc2ccccc2c1Cl | -72.2% (inactive) | –
65 | COc1cc2nc(N3CCNCC3)nc(N)c2cc1OC | – | 5.76% (inactive)
66 | CC1CCN(c2ccc3c(c2)S(=O)(=O)c2ccccc2C3=O)CC1 | -45.6% (inactive) | –
67 | CC12CC3(C)CC(C)(C1)CC(NC(=O)N1CCCC1)(C2)C3 | -73.5% (inactive) | –
68 | Nc1cc2c3ccccc3ccc2c2ccccc12 | -51.9% (inactive) | –
69 | C(=C1c2ccccc2-c2ccccc21)c1ccncc1 | -46.7% (inactive) | –
70 | CC1(C)CC(=O)C(C2C3=C(CC(C)(C)CC3=O)Oc3c(Br)cc(Br)cc32)=C(O)C1 (stereo not given) | – | -21.5% (inactive)
